The source of these data is patent publication US6600063B1, “Derivatives of phenyl 4-aminosalicylate and method of making the same” (priority 2000, dated 2003).

In brackets after ≈: the same amount, converted by molar mass. A value given as a limit tells only on which side of the number the result lay.

For assay [1], the system named is Mycobacterium tuberculosis H37Rv (ATCC 27294). As to the kind of experiment: BACTEC 460 radiometric system, primary screen and MIC against M. tuberculosis H37Rv. In kind it is cell-based. The settings on record: for MIC: Mycobacterium tuberculosis; for % Inhibition: primary screen at 12.5 or 6.25 ug/ml.
Another assay concerns M.tuberculosis (H37Rv). The settings on record: compared with 4-aminosalicylic acid; cited from earlier work.
The test system of assay [2] is Mycobacterium tuberculosis H37Rv (ATCC 27294). As to the kind of experiment: Microplate Alamar Blue Assay (MABA), primary screen and MIC against M. tuberculosis H37Rv. In kind it is cell-based. The arrangement: MIC H37Rv: unit not given beside the values. The settings on record: for MIC: Mycobacterium tuberculosis, M. tuberculosis H37Rv; for MIC / % Inhibition: ASSAY ALAMAR; for % Inhibition: primary screen at 12.5 or 6.25 ug/ml. (Resazurin is reduced to fluorescent resorufin, in cell work by metabolically active cells.)

For another assay, the system named is M. tuberculosis Erdman. Kind of assay: MIC in the MABA against drug-sensitive strain Erdman. The following applies: Mycobacterium tuberculosis, read-out: MIC ERDMA (ug/ml). It counts as cell-based.
Assay [3] relates to M. tuberculosis Erdman (ATCC 35801) in mouse bone marrow macrophages. Kind of assay: Killing of M. tuberculosis Erdman in monolayers of mouse bone marrow macrophages (EC90, EC99). It counts as cell-based, Mycobacterium tuberculosis.
The mark [4] stands for this setting: primary screen, BACTEC, M. tuberculosis H37Rv, read-out: MIC.

What is called % Inhibition is the percentage by which the read-out fell short of the control. In the case of `O=Cc1ccc(/C=N/c2ccc(C(=O)Oc3ccccc3)c(O)c2)cc1` [SAMPLE ID 130069], the MIC in assay [1] (setting [4]) is < 12.5 µg/mL. Also, the “% Inhibition” value in assay [1] (BACTEC, M. tuberculosis H37Rv) is 99%.

As to `O=C(Oc1ccccc1)c1ccc(/N=C/c2ccc([N+](=O)[O-])cc2)cc1O` [SAMPLE ID 133652], the MIC is 0.1 µg/mL (≈ 0.276 µM) in assay [1] (actual MIC, ASSAY BACTEC, M. tuberculosis H37Rv) and < 12.5 µg/mL in assay [1] (primary screen, BACTEC, M. tuberculosis H37Rv). Besides, in assay [1] (BACTEC, M. tuberculosis H37Rv), the “% Inhibition” value stood at 97%.

Regarding `CO[C@H]1/C=C/O[C@@]2(C)Oc3c(C)c(O)c4c(O)c(c(/C=N/N5CCN(C)CC5)c(O)c4c3C2=O)NC(=O)/C(C)=C\C=C\[C@H](C)[C@H](O)[C@@H](C)[C@@H](O)[C@@H](C)[C@H](OC(C)=O)[C@@H]1C` [RMP, rifampin, reference compound], the MIC in assay [1] (reference drug in the COMMENT column of the primary screen, read-out: MIC of RMP vs. M. tuberculosis) came out at 0.25 µg/mL.

In the case of `Nc1ccc(C(=O)Oc2ccccc2)c(O)c1` [phenyl 4-aminosalicylate], in the assay on M.tuberculosis (H37Rv), the “destruction of the virulent strain of M.tuberculosis (H37Rv)” value is “even better than 4-aminosalicylic acid”.

As to `CCC(=O)Nc1ccc(C(=O)Oc2ccccc2)c(OC(=O)CC)c1` [SAMPLE ID 138392], in assay [2], the MIC amounted to 0.39 µg/mL (≈ 1.14 µM) and the “% Inhibition” value came out at 94%.

The EC99 is the concentration needed for an effect of 99%. For orientation: EC90 means the concentration needed for an effect of 90%. On to `O=C(Oc1ccccc1)c1ccc(NC(=S)Nc2ccccc2)cc1O` [SAMPLE ID 131326], for which the MIC is 0.2 µg/mL (≈ 0.549 µM) with M. tuberculosis Erdman; 0.2 µg/mL (≈ 0.549 µM) in assay [1] (Table 4, assay not given, read-out: MIC); 0.2 µg/mL (≈ 0.549 µM) in assay [1] (actual MIC, ASSAY BACTEC, M. tuberculosis H37Rv, read-out: MIC); < 12.5 µg/mL in assay [1] (setting [4]). The “MIC H37Rv” value in assay [2] (Table 9 strain panel, drug-sensitive strain H37Rv) is on record as 1.56. The “% Inhibition” value in assay [1] (BACTEC, M. tuberculosis H37Rv) is given as 100%. The compound also gave an EC99 in assay [3] (99% reduction in colony forming units at 7 days, bactericidal activity) of 0.92 µg/mL. In assay [3] (Mycobacterium tuberculosis, Bone marrow macrophage, 168 h, 90% reduction in colony forming units at 7 days, bacteriostatic activity), the EC90 came out at 0.203 µg/mL (≈ 0.557 µM).

In the case of `O=C(Oc1ccccc1)c1ccc(/C=N/c2ccccc2[N+](=O)[O-])cc1O` [SAMPLE ID 139235], in assay [2], the MIC worked out at 0.025 µg/mL (≈ 0.069 µM) and the “% Inhibition” value was 97%.
